According to US8426447B2, “Spiro-tricyclic ring compounds as beta-secretase modulators and methods of use” (Amgen Inc., priority 2008, dated 2013):
Blank lines part the entries; values can stand above or below the compound they belong to.

Columns and labels:
BACE1 [1] = target: T1, BACE1 (Homo sapiens, UniProt P56817); experiment: In Vitro BACE Cell-based Assay (HEK cell assay): Aβ40 in conditioned medium of cells stably expressing Amyloid Precursor Protein, sandwich ELISA; settings: read-out: HEK cell assay
T1 sequence (P56817 46-501, species assumed): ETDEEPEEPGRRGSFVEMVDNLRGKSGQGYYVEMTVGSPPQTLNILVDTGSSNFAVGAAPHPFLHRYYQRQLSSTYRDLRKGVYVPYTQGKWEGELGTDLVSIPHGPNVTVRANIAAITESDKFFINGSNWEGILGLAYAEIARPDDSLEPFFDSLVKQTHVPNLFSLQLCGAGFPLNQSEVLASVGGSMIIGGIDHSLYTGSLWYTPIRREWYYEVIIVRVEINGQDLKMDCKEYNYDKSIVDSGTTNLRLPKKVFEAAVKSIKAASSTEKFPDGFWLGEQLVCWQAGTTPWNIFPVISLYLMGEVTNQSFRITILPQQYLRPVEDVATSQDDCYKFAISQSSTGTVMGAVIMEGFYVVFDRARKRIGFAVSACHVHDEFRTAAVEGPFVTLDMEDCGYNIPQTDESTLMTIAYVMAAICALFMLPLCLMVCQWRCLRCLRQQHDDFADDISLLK
Outline: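 HEK cells stably expressing APP were treated 24 h with compound in 10-point dose response starting at 100 or 10 μM (0.1% DMSO). Secreted Aβ40 quantified by sandwich ELISA (pAb40 capture, biotinylated 6E10 detection, europium time-resolved fluorescence), with IC50 derived from percent inhibition versus concentration.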

BACE1 [2] = target: T1, BACE1; experiment: In Vitro Enzymatic BACE FRET (Fluorescence Resonance Energy Transfer) Assay; type: biochemical; settings: read-out: BACE1 FRET assay
Outline: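 Acetate buffer at pH 4.2 with 10% DMSO and 100 uM genapol hosts the enzymatic reaction, initiated by 50 nM FRET substrate and allowed to proceed one hour. Tris quench to neutral pH precedes the fluorescence measurement.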

[3] = HEK cell-based assay, Aβ40 in conditioned medium, IC50 class symbols
[4] = in vitro BACE FRET enzyme assay, IC50 class symbols

IC50 (BACE1 [1]): > 5 µM | IC50 (BACE1 [2]): 1 to 5 µM
SMILES: NC1=NC2(CO1)c1cnc(Cl)cc1Oc1ccc(-c3cccnc3)cc12 (stereo not drawn) [compound 727]

IC50 (BACE1 [1]; HEK cells): < 0.1 µM | IC50 (BACE1 [2]): < 0.1 µM
SMILES: CC1(C)C=C(c2cc(F)c3c(c2)[C@]2(COC(N)=N2)c2cc(-c4cncnc4)ccc2O3)CCO1 [compound 466]

IC50 (BACE1 [1]): 0.1 to 1 µM | IC50 (BACE1 [2]): < 0.1 µM
SMILES: NC1=N[C@@]2(CO1)c1cc(-c3cccnc3)ccc1Oc1ccc(C3CC3)cc12 [compound 758]

IC50 (BACE1 [1]; [3]): < 0.1 µM | IC50 (BACE1 [2]; [4]): < 0.1 µM
SMILES: NC1=N[C@@]2(CO1)c1cc(-c3cccnc3F)ccc1Oc1ccc(C3CCOCC3)nc12 [compound 338]

IC50 (BACE1 [1]; Table IV, class symbols): 1 to 5 µM | IC50 (BACE1 [2]; Table IV, class symbols): 0.1 to 1 µM
SMILES: COc1ccc2c(c1)[C@]1(COC(N)=N1)c1cc(NC(=O)C(F)(F)F)ccc1O2 [compound 651]

IC50 (BACE1 [1]; Table IV, class symbols): < 0.1 µM | IC50 (BACE1 [2]; Table IV, class symbols): < 0.1 µM
SMILES: CC(C)(C)CCc1cnc2c(c1)[C@]1(COC(N)=N1)c1cc(-c3cccnc3)ccc1O2 [compound 922]

IC50 (BACE1 [1]; HEK cells): < 0.1 µM | IC50 (BACE1 [2]): < 0.1 µM
SMILES: CC1(C)CC(c2cc3c(cc2F)Oc2ccc(-c4cncnc4)cc2[C@@]32COC(N)=N2)=CC(=O)O1 [compound 524]

IC50 (BACE1 [1]; HEK cells): 0.1 to 1 µM | IC50 (BACE1 [2]): 0.1 to 1 µM
SMILES: CC(C)C[C@@H]1CN(c2ccc3c(c2)[C@]2(COC(N)=N2)c2cc(-c4cncnc4)ccc2O3)CCO1 [compound 422]

Continued, compound first:

SMILES: NC1=NC2(CO1)c1cc(-c3cncnc3)ccc1Oc1ccc(-c3cncnc3)cc12 [compound 137]
IC50 (BACE1 [1]; Table III, IC50's in uM ranges): 0.1 to 1 µM | IC50 (BACE1 [2]; Table III, IC50's in uM ranges): < 0.1 µM

SMILES: NC1=N[C@@]2(CO1)c1cc(-c3cccnc3F)ccc1Oc1cnc(-c3cccnc3F)cc12 [compound 550]
IC50 (BACE1 [1]; Table IV, class symbols): 0.1 to 1 µM | IC50 (BACE1 [2]; Table IV, class symbols): < 0.1 µM

SMILES: CC(C)Cc1cc2c3c(ccc2o1)Oc1ncc(-c2cncnc2)cc1[C@]31COC(N)=N1 [compound 792]
IC50 (BACE1 [1]; Table IV, class symbols): 1 to 5 µM | IC50 (BACE1 [2]; Table IV, class symbols): 0.1 to 1 µM

SMILES: NC1=N[C@]2(CO1)c1cc(-c3ccc(OC(F)F)cc3)ccc1Oc1ccc(-c3cncnc3)cc12 [compound 773]
IC50 (BACE1 [1]): 0.1 to 1 µM | IC50 (BACE1 [2]): < 0.1 µM

SMILES: CC(C)(O)C#Cc1ccc2c(c1)C1(COC(N)=N1)c1cc(C#CC(C)(C)O)ccc1O2 [compound 118]
IC50 (BACE1 [1]; Table III, IC50's in uM ranges): 1 to 5 µM | IC50 (BACE1 [2]; Table III, IC50's in uM ranges): 1 to 5 µM

SMILES: CC(=O)c1sccc1-c1ccc2c(c1)[C@@]1(COC(N)=N1)c1cc(OCC(C)(C)C)ccc1O2 [compound 835]
IC50 (BACE1 [1]; Table IV, class symbols): > 5 µM | IC50 (BACE1 [2]; Table IV, class symbols): 1 to 5 µM

SMILES: NC1=N[C@]2(CO1)c1cc(C(=O)CC3CCCCC3)ccc1Oc1ccc(-c3cncnc3)cc12 [compound 141]
IC50 (BACE1 [1]; Table III, IC50's in uM ranges): 0.1 to 1 µM | IC50 (BACE1 [2]; Table III, IC50's in uM ranges): < 0.1 µM

SMILES: NC1=N[C@@]2(CO1)c1cc(-c3cccnc3N3CCOCC3)ccc1Oc1cnc(Cl)cc12 [compound 337]
IC50 (BACE1 [1]; [3]): > 5 µM | IC50 (BACE1 [2]; [4]): 1 to 5 µM

SMILES: CC(C)(C)COc1ccc2c(c1)[C@]1(COC(N)=N1)c1cc(-c3ccc(=O)[nH]c3)ccc1O2 [compound 980]
IC50 (BACE1 [1]): 1 to 5 µM | IC50 (BACE1 [2]): 0.1 to 1 µM

SMILES: Cc1cncc(-c2ccc3c(c2)[C@@]2(COC(N)=N2)c2cc(OCC(C)(C)C)ccc2O3)c1 [Example 81, (4S)-2′-(2,2-dimethylpropoxy)-7′-(5-methyl-3-pyridinyl)spiro[1,3-oxazole-4,9′-xanthen]-2-amine]
IC50 (BACE1 [1]; Table II, Aβ40, 24 h incubation): < 0.1 µM | IC50 (BACE1 [2]; Table II): < 0.1 µM

SMILES: CC(C)(C)OC(=O)n1c(-c2ccc3c(c2)[C@@]2(COC(N)=N2)c2ccccc2O3)cc2ccccc21 [compound 568]
IC50 (BACE1 [1]; Table IV, class symbols): > 5 µM | IC50 (BACE1 [2]; Table IV, class symbols): > 5 µM

SMILES: CC(C)(C#N)COc1cnc2c(c1)[C@]1(COC(N)=N1)c1cc(-c3ccccc3F)ccc1O2 [compound 408]
IC50 (BACE1 [1]; [3]): < 0.1 µM | IC50 (BACE1 [2]; [4]): < 0.1 µM

SMILES: COc1ccc2c(c1)C1(COC(N)=N1)c1cc(-c3cccnc3F)ccc1O2 (stereo not drawn) [Example 16, 2′-(2-fluoro-3-pyridinyl)-7′-methoxyspiro[1,3-oxazole-4,9′-xanthen]-2-amine]
IC50 (BACE1 [1]; Table 1, Aβ40, 24 h incubation): 1 to 5 µM | IC50 (BACE1 [2]; Table 1): 1 to 5 µM

SMILES: NC1=N[C@]2(CO1)c1cc(OCC(O)(C(F)(F)F)C(F)(F)F)ccc1Oc1ccc(-c3cccnc3)cc12 [compound 894]
IC50 (BACE1 [1]; Table IV, class symbols): 0.1 to 1 µM | IC50 (BACE1 [2]; Table IV, class symbols): < 0.1 µM

SMILES: COc1ccc2c(c1)[C@]1(N=C(N)O[C@@H]1C)c1cc(-c3cncnc3)ccc1O2 (single isomer, unassigned) [Example 125c]
IC50 (BACE1 [1]; Table III, IC50's in uM ranges): > 5 µM | IC50 (BACE1 [2]; Table III, IC50's in uM ranges): > 5 µM

SMILES: CC(=O)c1ccc(-c2ccc3c(c2)[C@]2(COC(N)=N2)c2cc(-c4cncnc4)ccc2O3)cc1 [compound 888]
IC50 (BACE1 [1]; Table IV, class symbols): < 0.1 µM | IC50 (BACE1 [2]; Table IV, class symbols): < 0.1 µM

SMILES: NC1=N[C@]2(CO1)c1cc(C3=CCSCC3)ccc1Oc1ccc(-c3cncnc3)cc12 [compound 831]
IC50 (BACE1 [1]; Table IV, class symbols): < 0.1 µM | IC50 (BACE1 [2]; Table IV, class symbols): < 0.1 µM

SMILES: CC(C)(C)C#Cc1ccc2c(c1)[C@]1(COC(N)=N1)c1cc(C#CC(C)(C)C)cnc1O2 [compound 898]
IC50 (BACE1 [1]; Table IV, class symbols): > 5 µM | IC50 (BACE1 [2]; Table IV, class symbols): 0.1 to 1 µM

SMILES: COc1ccc2c(c1)[C@@]1(COC(N)=N1)c1cc(-c3cccnc3)cnc1O2 [compound 670]
IC50 (BACE1 [1]): 1 to 5 µM | IC50 (BACE1 [2]): 0.1 to 1 µM
